We go through 20 compounds from US8536172B2, “Inhibitors of JNK” (Roche Palo Alto LLC, priority 2009, dated 2013).

The structures appear in SMILES notation.

In experiment [1] the target is Human JNK1α1 (Homo sapiens (Human), UniProt P45983). Description: JNK assay in vitro: phosphorylation of GST-ATF2 (19-96) with [γ-33P] ATP, JNK1. It counts as biochemical. The settings on record: 2 nM enzyme, 1 μM ATF2, 6 μM ATP (Km), 30° C. 30 min. The protocol: JNK activity was measured by phosphorylation of GST-ATF2 (19-96) with [γ-^33P] ATP. […] Human JNK2α2 assay contains 1 nM enzyme, 1 μM ATF2, 8 μM ATP with 1 uCi [γ-^33P] ATP. Human JNK1α1 assay contains 2 nM enzyme, 1 μM ATF2, 6 μM ATP with 1 μCi [γ-^33P] ATP. […] ATP. The enzyme assay was carried out in the presence or absence of several compound concentrations. JNK and compound were pre-incubated for 10 min., followed by initiation of the enzymatic reaction by adding ATP and the substrate. The reaction mixture was incubated at 30° C. for 30 min. […] The incorporation of ^33P into ATF2 was quantified on a microplate scintillation counter (Packard Topcount). Compound inhibition potency on JNK was measured by IC50 value generated from ten concentration inhibition curves fitted into the 3-parameter model: % inhibition=Maximum/(1+(IC50/[Inhibitor])^slope). Data were analyzed on Microsoft Excel for parameter estimation.

In experiment [2] the target is Human JNK2α2 (Homo sapiens (Human), UniProt P45984). In words: JNK assay in vitro: phosphorylation of GST-ATF2 (19-96) with [γ-33P] ATP, JNK2. It counts as biochemical. The settings on record: 1 nM enzyme, 1 μM ATF2, 8 μM ATP (Km), 30° C. 30 min. The protocol:
JNK activity was measured by phosphorylation of GST-ATF2 (19-96) with [γ-^33P] ATP. […] Human JNK2α2 assay contains 1 nM enzyme, 1 μM ATF2, 8 μM ATP with 1 uCi [γ-^33P] ATP. Human JNK1α1 assay contains 2 nM enzyme, 1 μM ATF2, 6 μM ATP with 1 μCi [γ-^33P] ATP. Human JNK3 (Upstate Biotech #14-501M) assay contains 2 nM enzyme, 1 μM ATF2, 4 μM ATP with 1 μCi [γ-^33P] ATP. The enzyme assay was carried out in the presence or absence of several compound concentrations. JNK and compound were pre-incubated for 10 min., followed by initiation of the enzymatic reaction by adding ATP and the substrate. The reaction mixture was incubated at 30° C. for 30 min. At the end of incubation, the reaction was terminated by transferring 25 μl of the reaction mixture to 150 μl of 10% glutathione Sepharose® slurry (Amersham #27-4574-01) containing 135 mM EDTA. The reaction product was captured on the affinity resin, and washed on a filtration plate (Millipore, MABVNOB50) with phosphate buffered saline for six times to remove free radionucleotide. The incorporation of ^33P into ATF2 was quantified on a microplate scintillation counter (Packard Topcount). Compound inhibition potency on JNK was measured by IC50 value generated from ten concentration inhibition curves fitted into the 3-parameter model: % inhibition=Maximum/(1+(IC50/[Inhibitor])^slope). Data were analyzed on Microsoft Excel for parameter estimation.

Sequence of Human JNK2α2 (P45984 whole entry): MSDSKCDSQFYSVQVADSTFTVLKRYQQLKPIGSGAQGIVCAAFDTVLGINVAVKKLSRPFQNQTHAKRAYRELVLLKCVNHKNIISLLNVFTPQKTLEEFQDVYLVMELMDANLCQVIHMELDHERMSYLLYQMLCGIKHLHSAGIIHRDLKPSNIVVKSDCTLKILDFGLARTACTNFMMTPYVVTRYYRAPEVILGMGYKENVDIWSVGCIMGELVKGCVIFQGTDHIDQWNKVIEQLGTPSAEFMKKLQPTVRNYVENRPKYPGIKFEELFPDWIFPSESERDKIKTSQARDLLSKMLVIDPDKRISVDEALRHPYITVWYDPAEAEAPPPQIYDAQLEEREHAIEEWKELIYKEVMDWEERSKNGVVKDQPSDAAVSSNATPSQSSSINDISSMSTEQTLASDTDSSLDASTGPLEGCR
Sequence of Human JNK1α1 (P45983 other isoform, or with tags, fused parts or gaps): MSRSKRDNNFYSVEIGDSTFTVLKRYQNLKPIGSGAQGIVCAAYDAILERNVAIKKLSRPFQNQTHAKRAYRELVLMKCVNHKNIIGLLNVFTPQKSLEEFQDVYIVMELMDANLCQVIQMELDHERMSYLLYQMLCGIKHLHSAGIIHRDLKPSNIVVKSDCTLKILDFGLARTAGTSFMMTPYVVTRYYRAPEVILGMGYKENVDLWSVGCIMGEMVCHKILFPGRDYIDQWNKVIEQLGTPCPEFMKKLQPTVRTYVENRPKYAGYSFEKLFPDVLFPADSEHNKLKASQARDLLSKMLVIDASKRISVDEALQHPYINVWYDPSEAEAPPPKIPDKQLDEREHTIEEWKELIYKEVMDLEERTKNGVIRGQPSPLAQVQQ

Broadly, the IC50 is the concentration needed to halve the response being measured. A lower IC50 goes with higher potency. As to `CS(=O)(=O)N[C@H]1CC[C@H](Nc2nccc(-n3ccc4c(N5CCN(C(=O)CC#N)CC5)cccc43)n2)CC1` [Compound I-9, N-[4-(4-{4-[4-(2-Cyano-acetyl)-piperazin-1-yl]-indol-1-yl}-pyrimidin-2-ylamino)-cyclohexyl]-methanesulfonamide], the IC50 in experiment [1] was determined as 5.4 nM; in experiment [2], 36.2 nM.
The matching figures for `CC(=O)OCC(=O)N1CCN(c2cccc3c2ccn3-c2ccnc(N[C@H]3CC[C@H](NS(C)(=O)=O)CC3)n2)CC1` [Compound I-10, Acetic acid 2-(4-{1-[2-(4-methanesulfonylamino-cyclohexylamino)-pyrimidin-4-yl]-1H-indol-4-yl}-piperazin-1-yl)-2-oxo-ethyl ester]: 10.4 nM and 74.9 nM.
Turning to `CC(=O)N[C@H]1CC[C@H](Nc2nccc(-n3ccc4c(N5CCC(S(C)(=O)=O)CC5)cccc43)n2)CC1` [Compound I-13, N-(4-{4-[4-(4-Methanesulfonyl-piperidin-1-yl)-indol-1-yl]-pyrimidin-2-ylamino}-cyclohexyl)-acetamide], the half-inhibitory concentration (IC50) was found to be 6.6 nM in experiment [1] and 49.3 nM in experiment [2].
Regarding `CC(C)(O)[C@H]1CC[C@H](Nc2nccc(-n3ccc4c(N5CCC(S(C)(=O)=O)CC5)cccc43)n2)CC1` [Compound I-14, 2-(4-{4-[4-(4-Methanesulfonyl-piperidin-1-yl)-indol-1-yl]-pyrimidin-2-ylamino}-cyclohexyl)-propan-2-ol], the half-maximal inhibitory concentration (IC50) in experiment [1] was found to be 3 nM; in experiment [2] it was 19.2 nM.
Consider `CN(C)S(=O)(=O)N[C@H]1CC[C@H](Nc2nccc(-n3ccc4c(N5CCC(S(C)(=O)=O)CC5)cccc43)n2)CC1` [Compound I-15, [4-{4-[4-(4-Methanesulfonyl-piperidin-1-yl)-indol-1-yl]-pyrimidin-2-ylamino}-cyclohexyl]aminodimethylsulfonamide], for which the IC50 in experiment [1] amounted to 3.6 nM; in experiment [2] it was 20.8 nM.
Regarding `CC(=O)N1CCN(c2cccc3c2ccn3-c2ccnc(N[C@H]3CC[C@H](C(=O)N4CCC(O)CC4)CC3)n2)[C@H](C)C1` [Compound I-21, 1-[(R)-4-(1-{2-[4-(4-Hydroxy-piperidine-1-carbonyl)-cyclohexylamino]-pyrimidin-4-yl}-1H-indol-4-yl)-3-methyl-piperazin-1-yl]-ethanone], the IC50 in experiment [1] came out at 31.2 nM; in experiment [2], 138 nM.
For the compound `CC(C)(C)OC(=O)NCC(=O)N1CCN(c2cccc3c2ccn3-c2ccnc(N[C@H]3CC[C@H](NS(C)(=O)=O)CC3)n2)CC1` [Compound I-22, [2-(4-{1-[2-(4-Methanesulfonylamino-cyclohexylamino)-pyrimidin-4-yl]-1H-indol-4-yl}-piperazin-1-yl)-2-oxo-ethyl]-carbamic acid tert-butyl ester], the half-maximal inhibitory concentration (IC50) was 3.6 nM in experiment [1] and 26.4 nM in experiment [2].
For the compound `CN(C)CC(=O)N1CCN(c2cccc3c2ccn3-c2ccnc(N[C@H]3CC[C@H](NS(C)(=O)=O)CC3)n2)CC1` [Compound I-23, N-[4-(4-{4-[4-(2-Dimethylamino-acetyl)-piperazin-1-yl]-indol-1-yl}-pyrimidin-2-ylamino)-cyclohexyl]-methanesulfonamide], the IC50 in experiment [1] was 378 nM; in experiment [2], 1630 nM.
As to `CS(=O)(=O)N[C@H]1CC[C@H](Nc2nccc(-n3ccc4c(N5CCN(C(=O)CN)CC5)cccc43)n2)CC1` [Compound I-24, N-[4-(4-{4-[4-(2-Amino-acetyl)-piperazin-1-yl]-indol-1-yl}-pyrimidin-2-ylamino)-cyclohexyl]-methanesulfonamide], the IC50 stood at 77.7 nM in experiment [1] and 477 nM in experiment [2].
For `N#CCC(=O)N1CCN(c2cccc3c2ccn3-c2ccnc(N[C@H]3CC[C@H](CN4CC[C@@H](O)C4)CC3)n2)CC1` [Compound I-25, 3-[4-(1-{2-[4-((R)-3-Hydroxy-pyrrolidin-1-ylmethyl)-cyclohexylamino]-pyrimidin-4-yl}-1H-indol-4-yl)-piperazin-1-yl]-3-oxo-propionitrile], the IC50 in experiment [1] is 4.2 nM; in experiment [2], 25.6 nM.
As to `CN(C)CCN([C@H]1CC[C@H](Nc2nccc(-n3ccc4c(N5CCN(C(=O)CC#N)CC5)cccc43)n2)CC1)S(C)(=O)=O` [Compound I-26, N-[4-(4-{4-[4-(2-Cyano-acetyl)-piperazin-1-yl]-indol-1-yl}-pyrimidin-2-ylamino)-cyclohexyl]-N-(2-dimethylamino-ethyl)-methanesulfonamide], the results for the IC50 in experiment [1] and in experiment [2] were 3.7 nM and 24.6 nM, respectively.
On to `CC(=O)N1CCN(c2cccc3c2ccn3-c2ccnc(NC3CCCCC3)n2)CC1` [Compound I-37, 1-{4-[1-(2-Cyclohexylamino-pyrimidin-4-yl)-1H-indol-4-yl]-piperazin-1-yl}-ethanone], for which the IC50 in experiment [1] amounted to 48.4 nM; in experiment [2] it was 4030 nM.
For `CC(=O)N1CCN(c2cccc3c2ccn3-c2ccnc(N[C@H]3CC[C@H](CS(C)(=O)=O)CC3)n2)CC1` [Compound I-41, 1-(4-{1-[2-(4-Methanesulfonylmethyl-cyclohexylamino)-pyrimidin-4-yl]-1H-indol-4-yl}-piperazin-1-yl)-ethanone], the values for the IC50 in experiment [1] and in experiment [2] were 25 nM and 164 nM, respectively.
As to `CS(=O)(=O)C[C@H]1CC[C@H](Nc2nccc(-n3ccc4c(N5CCN(C(=O)CC#N)CC5)cccc43)n2)CC1` [Compound I-42, 3-(4-{1-[2-(4-Methanesulfonylmethyl-cyclohexylamino)-pyrimidin-4-yl]-1H-indol-4-yl}-piperazin-1-yl)-3-oxo-propionitrile], the values for the half-inhibitory concentration (IC50) in experiment [1] and in experiment [2] were 2.4 nM and 13.6 nM, respectively.
Regarding `CS(=O)(=O)C1CCN(c2cccc3c2ccn3-c2ccnc(N[C@H]3CC[C@H](C(=O)N4CCn5c(nnc5C(F)(F)F)C4)CC3)n2)CC1` [Compound I-51, (4-{4-[4-(4-Methanesulfonyl-piperidin-1-yl)-indol-1-yl]-pyrimidin-2-ylamino}-cyclohexyl)-(3-trifluoromethyl-5,6-dihydro-8H-[1,2,4]triazolo[4,3-a]pyrazin-7-yl)-methanone], the IC50 amounted to 3.6 nM in experiment [1] and 6.2 nM in experiment [2].
For `N#CCC(=O)N1CCN(c2cccc3c2ccn3-c2ccnc(N[C@H]3CC[C@H](O)CC3)n2)CC1` [Compound I-55, 3-(4-{1-[2-(4-Hydroxy-cyclohexylamino)-pyrimidin-4-yl]-1H-indol-4-yl}-piperazin-1-yl)-3-oxo-propionitrile], the IC50 in experiment [1] worked out at 4.4 nM; in experiment [2] it was 23.1 nM.
`CCN1CCN(C(=O)[C@H]2CC[C@H](Nc3nccc(-n4ccc5c(N6CCN(C(=O)CC#N)CC6)cccc54)n3)CC2)CC1` [Compound I-56, 3-[4-(1-{2-[4-(4-Ethyl-piperazine-1-carbonyl)-cyclohexylamino]-pyrimidin-4-yl}-1H-indol-4-yl)-piperazin-1-yl]-3-oxo-propionitrile]: the IC50 in experiment [1] is 9.2 nM; in experiment [2], 18.7 nM.
Consider `N#CCC(=O)N1CCN(c2cccc3c2ccn3-c2ccnc(N[C@H]3CC[C@@H](O)CC3)n2)CC1` [Compound I-57, 3-(4-{1-[2-(4-Hydroxy-cyclohexylamino)-pyrimidin-4-yl]-1H-indol-4-yl}-piperazin-1-yl)-3-oxo-propionitrile], for which the IC50 in experiment [1] was 15.9 nM; in experiment [2] it was 88.4 nM.
For the compound `CC(=O)N1CCN(c2cccc3c2c(C(N)=O)cn3-c2ccnc(N[C@H]3CC[C@H](O)CC3)n2)CC1` [Compound I-63, 4-(4-Acetyl-piperazin-1-yl)-1-[2-(4-hydroxy-cyclohexylamino)-pyrimidin-4-yl]-1H-indole-3-carboxylic acid amide], the figures for the IC50 in experiment [1] and in experiment [2] were 12.4 nM and 25.7 nM, respectively.
For the compound `CS(=O)(=O)C1CCN(c2cccc3c2cnn3-c2ccnc(N[C@H]3CC[C@H](O)CC3)n2)CC1` [Compound I-66, 4-{4-[4-(4-Methanesulfonyl-piperidin-1-yl)-indazol-1-yl]-pyrimidin-2-ylamino}-cyclohexanol], the results for the IC50 in experiment [1] and in experiment [2] were 5.8 nM and 16.7 nM, respectively.
